# Results taken from US10857113B2, “Bezafibrate for the treatment of cancer” (Cipla Limited, priority 2016, dated 2020).
# Read-outs that look alike come from different tables or passages of the source.
# What was measured:
# Type in all cases: cell-based
# 786-O [1] = test: In vitro 2D assay (CellTiter-Blue); conditions: Homo sapiens, 786-0, 2D model, 96 hour treatment
# Excerpt: (§1) Cell lines RXF 1183L, RXF 1220L, RXF 1781L, RXF 393L and RXF 486L were established at Oncotest from the corresponding human patient-derived xenograft. The cell lines 786-O, A-498, Caki-1 and SN12C were purchased from NCI (National Cancer Institute, Bethesda, Md., USA). ACHN was purchased from ECACC (European Collection of Cell Cultures, Salisbury, UK). Authenticity of cell lines was confirmed at the DSMZ by STR (short tandem repeat) analysis, a PCR based DNA-fingerprinting methodology.
# (§2) Cell lines were routinely passaged once or twice weekly and maintained in culture for up to 20 passages. All cells were grown at 37° C. in a humidified atmosphere with 5% CO2 in RPMI 1640 medium (25 mM HEPES, with L-glutamine, # FG1385, Biochrom, Berlin, Germany) supplemented with 10% (v/v) fetal calf serum (Sigma, Taufkirchen, Germany) and 0.1 mg/mL gentamicin (Life Technologies, Karlsruhe, Germany).
# (§3) Bezafibrate was dissolved at a concentration of 100 mM in 100% Methanol and next 1:5 diluted with cell culture media (20 mM, 20% Methanol). Starting with this solution, serial dilutions (1:1.6) were prepared with cell culture medium. Next, 150 μL of the serial dilutions were transferred to the assay plates upon removing the cell culture media of each well (complete change of medium on assay plates). Thus the final test concentrations were 10,240, 6,400, 4,000, 2,500, 1,563, 977, 610, and 381 μM. The maximum methanol concentrations were 6% and 10%. No precipitation was observed.
# (§4) Cells were harvested from exponential phase cultures, counted and plated in 96-well flat-bottom microtiter plates at a cell density of 4,000-12,000 cells/well depending on the cell line's growth rate. After a 24 hour recovery period to allow the cells to resume exponential growth, test compounds were added. Compounds were applied at 8 to 10 concentrations in duplicate and treatment continued for 96 hour. After 96 hour treatment of cells, 20 μL/well CellTiter-Blue® reagent was added. Following an incubation period of up to four hours, fluorescence (FU) was measured by using the Enspire Multimode Plate Reader (excitation λ=531 nm, emission λ=615 nm).
# (§5) For calculations, the mean values of duplicate/quadruplicate (untreated control) data were used. Sigmoidal concentration-response curves were fitted to the data points (T/C values) obtained for each cell line using 4 parameter non-linear curve fit.
# A-498 [2] = test: In vitro 2D assay (CellTiter-Blue); conditions: Homo sapiens, A498, 2D model, 96 hour treatment
# Excerpt: as §1, §2, §3, §4, §5
# ACHN [3] = test: In vitro 2D assay (CellTiter-Blue); conditions: Homo sapiens, 2D model
# Excerpt: as §1, §2, §3, §4, §5
# Caki-1 = test: In vitro 2D assay (CellTiter-Blue); conditions: Homo sapiens, 2D model, 96 hour treatment
# Excerpt: as §1, §2, §3, §4, §5
# RXF 1183L = test: In vitro 2D assay (CellTiter-Blue); conditions: Homo sapiens, 2D model, 96 hour treatment
# Excerpt: as §1, §2, §3, §4, §5
# RXF 1220L = test: In vitro 2D assay (CellTiter-Blue); conditions: Homo sapiens, 2D model
# Excerpt: as §1, §2, §3, §4, §5
# RXF 1781L = test: In vitro 2D assay (CellTiter-Blue); conditions: Homo sapiens, 2D model, 96 hour treatment
# Excerpt: as §1, §2, §3, §4, §5
# RXF 393L = test: In vitro 2D assay (CellTiter-Blue); conditions: Homo sapiens, 2D model, 96 hour treatment
# Excerpt: as §1, §2, §3, §4, §5
# RXF 486L = test: In vitro 2D assay (CellTiter-Blue); conditions: Homo sapiens, 2D model, 96 hour treatment
# Excerpt: as §1, §2, §3, §4, §5
# SN12C = test: In vitro 2D assay (CellTiter-Blue); conditions: Homo sapiens, 2D model, 96 hour treatment
# Excerpt: as §1, §2, §3, §4, §5
# [4] = system: human tumor cell models for RCC; test: In vitro 2D assay, all cell lines tested; conditions: 2D model; for IC50: Homo sapiens
# Excerpt: as §1, §2
# as §3, with “Thus the final test concentrations were 10,240, 6,400, 4,000, 2,500, 1,563, 977, 610, and 381 μM.” left out
# as §4, §5
# 786-O [5] = test: In vitro 3D clonogenic assay; conditions: Homo sapiens, 786-0, 3D model, colony formation, 8 to 13 days continuous exposure
# Protocol: (§6) Cell lines were routinely passaged one or twice weekly. All cells were grown at 37° C. in a humidified atmosphere with 5% CO2 in RPMI 1640 medium (Biochrom) supplemented with 10% (v/v) fetal calf serum and 0.1 mg/mL gentamicin. The percentage of viable cells was determined in a Neubauer-hemocytometer using trypan blue exclusion.
# (§7) Tumor xenografts (patient-derived, as well as cell line-derived xenografts) were passaged as subcutaneous xenografts in NMRI nu/nu mice. At a tumor volume of 400-1,000 mm^3 tumor-bearing mice were sacrificed and tumors were collected under sterile conditions without delay according to the relevant Oncotest SOPs and the relevant animal welfare guidelines published by the FELASA and the GV-SOLAS. Tumors were mechanically disaggregated and subsequently incubated with an enzyme cocktail consisting of collagenase type IV (41 U/mL), DNase I (125 U/mL), hyaluronidase type III (100 U/mL), and dispase II (1.0 U/mL) in RPMI 1640 medium (Life Technologies) at 37° C. for 60-120 minutes. Cells were passed through sieves of 100 μm and 40 μm mesh size (Cell Strainer, BD Falcon™), and washed with RPMI 1640 medium. The percentage of viable cells was determined in a Neubauer-hemocytometer using trypan blue exclusion. Aliquots of the cells were frozen down, and stored in liquid nitrogen. On each day of an experiment, a frozen aliquot of tumor cells was thawed and used for preparation of assay plates.
# (§8) The clonogenic assay was carried out in a 96 well plate format using ultra low attachment plates. For each test, cells were prepared as described above and assay plates were prepared as follows: each test well contained a layer of semi-solid medium with tumor cells (50 and a second layer of medium supernatant with or without test compound (100 The cell layer consisted of 2.5·10^3 to 1·10^4 tumor cells per well, which were seeded in 50 μL/well cell culture medium (IMDM, supplemented with 20% (v/v) fetal calf serum, 0.01% (w/v) gentamicin, and 0.4% (w/v) agar). After 24 hours the test compounds were added after serial dilution in cell culture medium, and left on the cells for the duration of the experiment (continuous exposure, 100 μl drug overlay). Every plate included six untreated control wells and drug-treated groups in duplicate at 9 concentrations. Cultures were incubated at 37° C. and 7.5% CO2 in a humidified atmosphere for 8 to 13 days and monitored closely for colony growth using an inverted microscope. Within this period, ex vivo tumor growth led to the formation of colonies with a diameter of >50 μm. At the time of maximum colony formation, counts were performed with an automatic image analysis system (CellInsight NXT, Thermo Scientific). 48 hours prior to evaluation, vital colonies were stained with a sterile aqueous solution of 2-(4-iodophenyl)-3-(4-nitrophenyl)-5-phenyltetrazolium chloride (1 mg/ml, 100 μl/well).
# A-498 [6] = test: In vitro 3D clonogenic assay; conditions: Homo sapiens, A498, 3D model, colony formation, 8 to 13 days continuous exposure
# Protocol: as §6, §7, §8
# ACHN [7] = test: In vitro 3D clonogenic assay; conditions: Homo sapiens, 3D model, colony formation, 8 to 13 days continuous exposure, read-out: Absolute IC50
# Protocol: as §6, §7, §8
# [8] = second run 381 to 10,240 μM, read-out: Absolute IC50
# [9] = 96 hour treatment, read-out: Relative IC50
# [10] = 96 hour treatment, second run 381 to 10,240 μM, read-out: Absolute IC50
# [11] = first run 93 to 4,000 μM, read-out: IC50
smiles,measurement,setting,value
CC(C)(Oc1ccc(CCNC(=O)c2ccc(Cl)cc2)cc1)C(=O)O [Bezafibrate],IC50,786-O [1]; [8],795 µM
same,IC50,786-O [1]; read-out: Relative IC50,1070 µM
same,IC50,A-498 [2]; [8],2120 µM
same,IC50,A-498 [2]; read-out: Relative IC50,2280 µM
same,IC50,ACHN [3]; [9],1130 µM
same,IC50,ACHN [3]; [10],1050 µM
same,IC50,ACHN [3]; [11],1070 µM
same,IC50,Caki-1; read-out: Relative IC50,1400 µM
same,IC50,Caki-1; [8],1230 µM
same,IC50,RXF 1183L; [8],960 µM
same,IC50,RXF 1183L; read-out: Relative IC50,1060 µM
same,IC50,RXF 1220L; [10],1930 µM
same,IC50,RXF 1220L; [9],2110 µM
same,IC50,RXF 1220L; [11],3410 µM
same,IC50,RXF 1781L; read-out: Relative IC50,1950 µM
same,IC50,RXF 1781L; [8],1860 µM
same,IC50,RXF 393L; [8],1040 µM
same,IC50,RXF 393L; read-out: Relative IC50,1640 µM
same,IC50,RXF 486L; read-out: Relative IC50,1330 µM
same,IC50,RXF 486L; [8],987 µM
same,IC50,SN12C; read-out: Relative IC50,1210 µM
same,IC50,SN12C; [8],966 µM
same,"IC50 values, overall anti-cancer activity",[4]; overall statement,low mM range
same,IC50,"[4]; geometric mean over 10 cell lines, second run 381 to 10,240 μM, read-out: Geometric mean absolute IC50",1220 µM
same,IC50,"[4]; geometric mean over 10 cell lines, read-out: Geometric mean relative IC50",1560 µM
same,IC50,"[4]; first run 93 to 4,000 μM, read-out: Geometric mean absolute IC50",1780 µM
same,IC50,786-O [5]; read-out: Absolute IC50,1340 µM
same,IC50,786-O [5]; read-out: Relative IC50,1470 µM
same,IC50,A-498 [6]; read-out: Absolute IC50,764 µM
same,IC50,A-498 [6]; read-out: Relative IC50,773 µM
same,IC50,ACHN [7],1010 µM
